Laboratory results taken from patent US9920061B2, “Imidazo[1,5-A]pyrimidinyl carboxamide compounds and their use in the treatment of medical disorders” (Lysosomal Therapeutics Inc., priority 2016, dated 2018).
Converted amounts (≈) assume the structure as drawn. Where two headings read alike, the source gives them in different places.

Key:
[1] = biological target: T1, glucocerebrosidase (Gcase) (Homo sapiens, UniProt P04062); assay: Glucocerebrosidase (Gcase) activation assay, 4-methylumbelliferyl-beta-D-glucopyranoside substrate, with saposin C; type: biochemical
T1 sequence (P04062 40-536): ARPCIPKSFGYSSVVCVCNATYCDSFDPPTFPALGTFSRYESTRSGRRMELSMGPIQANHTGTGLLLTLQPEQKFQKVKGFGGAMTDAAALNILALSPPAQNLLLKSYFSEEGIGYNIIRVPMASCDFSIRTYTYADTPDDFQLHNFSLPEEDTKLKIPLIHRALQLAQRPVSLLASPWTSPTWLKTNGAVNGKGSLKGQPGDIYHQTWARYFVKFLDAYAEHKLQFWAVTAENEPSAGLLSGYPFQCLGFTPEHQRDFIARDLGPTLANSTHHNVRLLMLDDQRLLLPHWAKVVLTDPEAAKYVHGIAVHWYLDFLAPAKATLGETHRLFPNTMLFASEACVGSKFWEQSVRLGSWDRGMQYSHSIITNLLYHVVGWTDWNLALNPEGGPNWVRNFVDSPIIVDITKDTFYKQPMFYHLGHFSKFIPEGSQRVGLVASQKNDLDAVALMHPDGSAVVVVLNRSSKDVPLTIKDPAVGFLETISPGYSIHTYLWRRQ
Procedure, shortened: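 Micellar buffer (176 mM K2HPO4/50 mM citric acid, pH 4.7; 0.32 mM triton, 0.37 mol % PS) holding 10 nM GCase and 100 nM saposin C, pre-incubated with compound 30 min at room temperature. Substrate final 2 mM before mixing; 15 min reaction, glycine pH 12.5 stop, fluorescence 365/440 nm. Screened at 1.0 and 0.1 μM; 8-point, 3-fold dose response.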

[2] = Compound solubility in water; type: physicochemical
[3] = test compound at 0.1 μM, read-out: Percent Gcase Activation, 0.1 μM Test Compound
[4] = test compound at 1.0 μM, read-out: Percent Gcase Activation, 1 μM Test Compound
[5] = 0.1 μM test compound, read-out: Percent Gcase Activation 0.1 μM Test Compound
[6] = 1 μM test compound, read-out: Percent Gcase Activation 1 μM Test Compound

Structure (SMILES) | activation at 0.1 µM [1, 3] [%] | activation at 1 µM [1, 4] [%] | solubility ([2]; in water) [µg/mL] | activation at 0.1 µM [1, 5] [%] | activation at 1 µM [1, 6] [%] | solubility [2] [µg/mL]
Cc1cc(-c2cc(F)cc(C#N)c2)nc2c(C(=O)NC(C3CC3)C(F)(F)F)ncn12 (stereo not drawn) [IV-110] | > 20 | > 60 | 1.2 (≈ 2.88 µM) |  |  | 
Cc1cc(-c2cccc3ncsc23)nc2c(C(=O)NC(C3CC3)C(F)(F)F)ncn12 (stereo not drawn) [IV-48] | 10 to 20 | > 60 | 0.4 (≈ 0.927 µM) |  |  | 
Cc1cc(-c2ccc3scnc3c2)nc2c(C(=O)NC(C3CC3)C(F)(F)F)ncn12 (stereo not drawn) [IV-49] | > 20 | > 60 | 0.6 (≈ 1.39 µM) |  |  | 
CCc1cc(N2CCN(CC(F)(F)F)C2=O)nc2c(C(=O)NC(C3CC3)C(F)(F)F)ncn12 (stereo not drawn) [IV-90] | 10 to 20 | > 60 | 25.6 (≈ 53.5 µM) |  |  | 
Cc1cc(-c2cccc(F)c2)nc2c(C(=O)N[C@H](C3CC3)C(F)(F)F)ncn12 [IV-19] | > 20 | > 60 | 0.7 (≈ 1.78 µM) |  |  | 
Cc1sc(C#N)cc1-c1cc(C)n2cnc(C(=O)NC(C3CC3)C(F)(F)F)c2n1 (stereo not drawn) [IV-95] | > 20 | > 60 | 2.5 (≈ 5.96 µM) |  |  | 
Cc1cc(-c2ccc3c(c2)OCO3)nc2c(C(=O)N[C@@H](C)C(F)(F)F)ncn12 [IV-78] | > 20 | > 60 | 3.3 (≈ 8.41 µM) |  |  | 
Cc1cc(-c2ccc3c(c2)OCO3)nc2c(C(=O)NC(C3CC3)C(F)(F)F)ncn12 (stereo not drawn) [IV-75] | > 20 | > 60 | 0.5 (≈ 1.2 µM) |  |  | 
Cc1cc(-c2cccc(C#N)n2)nc2c(C(=O)NC(C3CC3)C(F)(F)F)ncn12 (stereo not drawn) [IV-39] | < 10 | 30 to 60 | 0.3 (≈ 0.749 µM) |  |  | 
Cc1cc(-c2ccns2)nc2c(C(=O)N[C@H](C3CC3)C(F)(F)F)ncn12 [IV-7] | 10 to 20 | > 60 | 9.9 (≈ 26 µM) |  |  | 
Cc1cc(-c2ccc(F)cc2)nc2c(C(=O)N[C@H](C3CC3)C(F)(F)F)ncn12 [IV-45] | > 20 | > 60 | 2.5 (≈ 6.37 µM) |  |  | 
Cc1cc(-c2ccc3c(c2)OCO3)nc2c(C(=O)N[C@H](C)C3CC3)ncn12 [IV-29] | > 20 | > 60 | 1.1 (≈ 3.02 µM) |  |  | 
Cc1cc(C)n2cnc(C(=O)N[C@H]3[C@@H]4CC[C@H]3C[C@@H](OC(C)(C)C)C4)c2n1 [IV-10] | > 20 | > 60 | 1 (≈ 2.7 µM) |  |  | 

Results, then the compound that gave them:

activation at 0.1 µM [1, 3] [%] | activation at 1 µM [1, 4] [%] | solubility ([2]; in water) [µg/mL] | activation at 0.1 µM [1, 5] [%] | activation at 1 µM [1, 6] [%] | solubility [2] [µg/mL] | Structure (SMILES)
 |  |  | > 20 | > 60 | 1.5 (≈ 4.12 µM) | Cc1cc(-c2cccc(F)c2)nc2c(C(=O)NC(C3CC3)C3CC3)ncn12 [III-133]
 |  |  | < 10 | 30 to 60 | 24.2 (≈ 84.5 µM) | Cc1cc(C)n2cnc(C(=O)NC(C)C(C)C3CC3)c2n1 (stereo not drawn) [III-47]
 |  |  | > 20 | > 60 | 2.2 (≈ 6.04 µM) | Cc1cc(-c2ccc(F)cc2)nc2c(C(=O)NC(C3CC3)C3CC3)ncn12 [III-87]
 |  |  | < 10 | 30 to 60 | 1.7 (≈ 4.65 µM) | CCOc1cccc(-c2cc(C)n3cnc(C(=O)N[C@@H](C)C4CC4)c3n2)n1 [III-155]
 |  |  | < 10 | 30 to 60 | 5 (≈ 13.3 µM) | Cc1cc(-c2cccnc2)nc2c(C(=O)N[C@@H](C)c3ccccc3F)ncn12 [III-45]
 |  |  | < 10 | < 30 | 14.9 (≈ 41.5 µM) | Cc1cc(-n2ccc(Cl)n2)nc2c(C(=O)NC(C)(C)C3CC3)ncn12 [III-142]
 |  |  | < 10 | < 30 | 23.4 (≈ 72.1 µM) | Cc1cc(-n2ccnc2)nc2c(C(=O)NC(C)(C)C3CC3)ncn12 [III-67]
 |  |  | < 10 | 30 to 60 | 10.5 (≈ 32.4 µM) | Cc1cc(-n2cccn2)nc2c(C(=O)NC(C)(C)C3CC3)ncn12 [III-70]
 |  |  | < 10 | 30 to 60 | 24.9 (≈ 73.4 µM) | Cc1cc(-c2cncc(F)c2)nc2c(C(=O)N[C@@H](C)C3CC3)ncn12 [III-105]
 |  |  | < 10 | < 30 | 0.2 (≈ 0.564 µM) | COc1cc(-c2ccc(F)cc2)nc2c(C(=O)N[C@@H](C)C3CC3)ncn12 [III-34]
 |  |  | < 10 | > 60 | 14.3 (≈ 47.6 µM) | Cc1cc(C)n2cnc(C(=O)NC(C)C3CCCCC3)c2n1 (stereo not drawn) [III-9]
 |  |  | < 10 | > 60 | 6.1 (≈ 16.9 µM) | Cc1cc(-c2ccc3ncoc3c2)nc2c(C(=O)N[C@@H](C)C3CC3)ncn12 [III-129]
 |  |  | > 20 | > 60 | 17.2 (≈ 43.9 µM) | CCc1cc(N2CCCC(F)(F)C2)nc2c(C(=O)NC(C)(C)C3CC3)ncn12 [III-136]
 |  |  | 10 to 20 | > 60 | 5.2 (≈ 14.8 µM) | COc1cccc(-c2cc(C)n3cnc(C(=O)N[C@@H](C)C4CC4)c3n2)n1 [III-98]
 |  |  | < 10 | > 60 | 12.1 (≈ 38.7 µM) | Cc1cc(C)n2cnc(C(=O)N[C@@H](C)C3CC4(CCC4)C3)c2n1 [III-102]
 |  |  | < 10 | < 30 | 23.2 (≈ 67.7 µM) | Cc1cc(C2CCCOC2)nc2c(C(=O)NC(C)(C)C3CC3)ncn12 (stereo not drawn) [III-78]
 |  |  | < 10 | < 30 | 43.5 (≈ 118 µM) | COCc1cc(-c2ccc(F)cc2)n2cnc(C(=O)N[C@@H](C)C3CC3)c2n1 [III-35]
 |  |  | > 20 | > 60 | 18 (≈ 47.2 µM) | Cc1cc(-c2ccns2)nc2c(C(=O)NC(C3CC3)C(F)(F)F)ncn12 (stereo not drawn) [III-141]
 |  |  | < 10 | 30 to 60 | 7.2 (≈ 20.5 µM) | COc1ccnc(-c2cc(C)n3cnc(C(=O)NC(C)C4CC4)c3n2)c1 (stereo not drawn) [III-100]
 |  |  | < 10 | 30 to 60 | 20.5 (≈ 50.1 µM) | Cc1cc(N2CCC(C)(C)C2=O)nc2c(C(=O)NC(C3CC3)C(F)(F)F)ncn12 (stereo not drawn) [III-144]
 |  |  | 10 to 20 | > 60 | 10.4 (≈ 26.9 µM) | Cc1cc(Cl)nc2c(C(=O)NC(c3ccc(F)cc3)C(F)(F)F)ncn12 (stereo not drawn) [III-24]
 |  |  | > 20 | > 60 | 4.3 (≈ 11 µM) | COc1cccc(-c2cc(C)n3cnc(C(=O)NC(C)(C)C(F)(F)F)c3n2)c1 [III-184]
 |  |  | > 20 | > 60 | 3.6 (≈ 10.1 µM) | Cc1cc(-c2cccc(Cl)c2)nc2c(C(=O)N[C@@H](C)C3CC3)ncn12 [III-110]
 |  |  | 10 to 20 | > 60 | 17.4 (≈ 53 µM) | Cc1cc(OC(C)C)nc2c(C(=O)NC(C3CC3)C3CC3)ncn12 [III-178]
 |  |  | 10 to 20 | > 60 | 2.7 (≈ 6.93 µM) | CCC(NC(=O)c1ncn2c(C)cc(-c3ccccn3)nc12)c1ccc(F)cc1 (stereo not drawn) [III-31]
 |  |  | > 20 | > 60 | 10.9 (≈ 27.5 µM) | COCc1cc(C)nc2c(C(=O)NC(c3ccc(F)cc3)C(F)(F)F)ncn12 (stereo not drawn) [III-23]
 |  |  | > 20 | > 60 | 0.3 (≈ 0.761 µM) | COc1cc(-c2cc(C)n3cnc(C(=O)NC(C4CC4)C4CC4)c3n2)ccc1F [III-174]
 |  |  | > 20 | > 60 | 2.2 (≈ 5.56 µM) | CCNc1cc(C)n2cnc(C(=O)NC(c3ccc(F)cc3)C(F)(F)F)c2n1 (stereo not drawn) [III-90]
